Test results published in patent publication US5519034A, “Tetraisoquinoline compounds which have useful pharmaceutical utility” (The Boots Company PLC, priority 1991, dated 1996).
Like-named read-outs stand apart in the source and are kept apart here.

What was measured:
D2 dopamine receptors = target: T1, D2 dopamine receptors (Rattus norvegicus, UniProt P61169); test: D2 dopamine receptor binding: inhibition of tritiated (S)-sulpiride binding, rat striatal samples; parameters: species or system rat (male Charles River CD rats); settings: for Ki: rat striatum, tritiated (S)-sulpiride; for Ki for D2 / Ki for D1: ratio to two significant figures
T1 construct: Striatal samples from the brains of male Charles River CD rats; from tissue; host or cells: striatum of male Charles River CD rats (washed membrane pellet)
T1 sequence (P61169 whole entry): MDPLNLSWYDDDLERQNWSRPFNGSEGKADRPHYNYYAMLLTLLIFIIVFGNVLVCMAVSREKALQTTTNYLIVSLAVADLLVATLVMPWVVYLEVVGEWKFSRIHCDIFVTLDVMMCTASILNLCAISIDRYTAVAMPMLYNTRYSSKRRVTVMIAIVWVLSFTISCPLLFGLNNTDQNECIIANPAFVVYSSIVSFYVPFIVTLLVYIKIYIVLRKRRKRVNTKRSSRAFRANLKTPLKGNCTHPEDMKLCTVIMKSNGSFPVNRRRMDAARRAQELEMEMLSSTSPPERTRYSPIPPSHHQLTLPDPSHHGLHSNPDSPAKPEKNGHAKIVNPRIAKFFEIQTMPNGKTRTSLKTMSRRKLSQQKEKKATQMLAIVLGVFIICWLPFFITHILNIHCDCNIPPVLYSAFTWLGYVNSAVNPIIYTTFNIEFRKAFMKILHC
Summary of the method: (§1)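 Rat striatal membranes in Tris-HCl with NaCl, KCl, CaCl2, MgCl2. Filtration, scintillation counting; Ki from displacement IC50 via ligand KD, some D2 Ki estimated from single concentrations.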

D1 dopamine receptors = target: T2, D1 dopamine receptors (Rattus norvegicus, UniProt P18901); test: D1 dopamine receptor binding: inhibition of tritiated SCH 23390 binding, rat striatal samples; parameters: species or system rat (male Charles River CD rats); settings: rat striatum, tritiated SCH 23390, pH 7.4, 37° C., 30 minutes
T2 construct: Striatal samples from the brains of male Charles River CD rats; from tissue; host or cells: striatum of male Charles River CD rats (washed membrane pellet)
T2 sequence (P18901 whole entry): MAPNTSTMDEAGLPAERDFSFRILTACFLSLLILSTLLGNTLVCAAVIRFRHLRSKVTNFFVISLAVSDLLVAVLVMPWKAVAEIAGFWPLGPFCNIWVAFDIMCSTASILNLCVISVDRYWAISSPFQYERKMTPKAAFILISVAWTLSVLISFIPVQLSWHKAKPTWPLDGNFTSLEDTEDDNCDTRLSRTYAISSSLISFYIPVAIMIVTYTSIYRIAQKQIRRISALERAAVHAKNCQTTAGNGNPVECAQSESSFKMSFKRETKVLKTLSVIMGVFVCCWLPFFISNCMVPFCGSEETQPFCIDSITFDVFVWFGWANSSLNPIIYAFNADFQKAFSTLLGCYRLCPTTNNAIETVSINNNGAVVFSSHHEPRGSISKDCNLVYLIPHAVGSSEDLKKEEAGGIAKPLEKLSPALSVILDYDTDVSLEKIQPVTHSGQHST
Summary of the method: as §1

[1] = pH 7.7, 4° C., 40 minutes, > = from highest concentration which displaced ≤50% of the ligand, read-out: Ki for D2 binding

Compound | Ki (D2 dopamine receptors; estimated from single concentration data by Langmuir adsorption isotherm equation, read-out: Ki for D2 binding (marked E)) [nM] | Ki (D1 dopamine receptors) [nM] | Ki (D2 dopamine receptors; [1]) [nM] | Ki for D2 / Ki for D1 (D2 dopamine receptors)
CN1CCc2c(O)cccc2C1C1(c2ccc(Cl)cc2)CCC1 (centres unmarked) [Example 26, 1-[1-(4-chlorophenyl)cyclobutyl]-5-hydroxy-2-methyl-1,2,3,4-tetrahydroisoquinoline] | 7000 | 560 |  | 
CN1CCc2cc(Cl)c(O)cc2C1C1(c2ccccc2Br)CCC1 (centres unmarked) [Example 40, 1-[1-(2-bromophenyl)cyclobutyl]-6-chloro-7-hydroxy-2-methyl-1,2,3,4-tetrahydroisoquinoline] |  | 0.4 | 18000 | 45000

More lines, in order of falling Ki (D1 dopamine receptors), values ahead:

Ki (D2 dopamine receptors; estimated from single concentration data by Langmuir adsorption isotherm equation, read-out: Ki for D2 binding (marked E)) [nM] | Ki (D1 dopamine receptors) [nM] | Ki (D2 dopamine receptors; [1]) [nM] | Ki for D2 / Ki for D1 (D2 dopamine receptors) | Compound
 | 120 | > 500 | > 4.2 | CCN1CCc2cc(O)c(O)cc2C1C1(c2ccc(Cl)cc2)CCC1 (centres unmarked) [Example 66, 1-[1-(4-chlorophenyl)cyclobutyl]-2-ethyl-6,7-dihydroxy-1,2,3,4-tetrahydroisoquinoline]
 | 1.9 | 330 | 170 | CN1CCc2cc(F)c(O)cc2C1C1(c2ccc(Cl)cc2Cl)CC1 (centres unmarked) [Example 81, 1-[1-(2,4-dichlorophenyl)cyclopropyl]-6-fluoro-7-hydroxy-2-methyl-1,2,3,4-tetrahydroisoquinoline]
 | 1.9 | 1700 | 890 | CN1CCc2cc(F)c(O)cc2C1C1(c2ccccc2Cl)CCC1 (centres unmarked) [Example 24, 1-[1-(2-chlorophenyl)cyclobutyl]-6-fluoro-7-hydroxy-2-methyl-1,2,3,4-tetrahydroisoquinoline]
